Test system: LNCaP cells
Test: LNCaP cell viability assay (MTS)
Type: cell-based
Details: LNCaP cell line, 48 hours treatment
Method: LNCaP cell line was used for the cell viability assay. LNCaP cells were plated in 96-well plates at a density of 5000 cells per well. After 24 hours of plating, the cells were treated with increasing doses of compound 1-100 ranging from 1 μM to 80 μM. Relative cell numbers were analyzed after 48 hours using 3-(4,5-dimethylthiazol-2-yl)-5-(3-carboxymethoxyphenyl)-2-(4-sulfophenyl)-2H-tetrazolium (MTS) assay (Promega) according to the manufacturer's instructions.
The cell viability data was analyzed with GraphPad Prism software. The values were log transformed and analyzed with non-linear regression (curve-fit) using log(inhibitor) vs. response—variable slope (four parameters) and constraining the bottom to equal zero. Unless otherwise indicated, the GI50 values provided in Table 35 correspond to the LNCaP cell viability assays.

With `O=S(=O)(NC1CCCC1c1ccc(Cl)c(Cl)c1)c1ccc(OC(F)(F)F)cc1` (single isomer, unassigned) [Compound 43, N-(2-(3,4-dichlorophenyl)cyclopentyl)-4-(trifluoromethoxy)benzenesulfonamide] the GI50 (Homo sapiens, LNCaP, 48 h) was 37.5 µM.
In the case of `CC(C)Oc1ccc(S(=O)(=O)NC2(c3ccc(Cl)cc3)CCNCC2)cc1` [Compound 62, N-(4-(4-chlorophenyl)piperidin-4-yl)-4-isopropoxybenzenesulfonamide], the GI50 (Homo sapiens, LNCaP, 48 h) is reported as 11.3 µM.
`O=C1CCC(NS(=O)(=O)c2ccc(OC(F)(F)F)cc2)c2ccc(OC(F)F)cc21` (stereo not drawn) [Compound 25, N-(6-(difluoromethoxy)-4-oxo-1,2,3,4-tetrahydronaphthalen-1-yl)-4-(trifluoromethoxy)benzene-sulfonamide] showed a GI50 (Homo sapiens, LNCaP, 48 h) of 30 µM.
`O=S(=O)(NC1(c2ccc(C(F)F)cc2)CCNCC1)c1ccc(OC(F)(F)F)cc1` [Compound 100, N-(4-(4-(difluoromethyl)phenyl)piperidin-4-yl)-4-(trifluoromethoxy)benzenesulfonamide] gave a GI50 (Homo sapiens, LNCaP, 48 h) of 22.3 µM.
`O=S(=O)(NC1(c2ccc(Cl)cc2)CCNC1)c1ccc(OC(F)(F)F)nc1` (stereo not drawn) [Compound 64, N-(3-(4-chlorophenyl)pyrrolidin-3-yl)-6-(trifluoromethoxy)pyridine-3-sulfonamide] showed a GI50 (Homo sapiens, LNCaP, 48 h) of 44.9 µM.
`O=S(=O)(NC1(c2ccc(Cl)s2)CCNCC1)c1ccc(OC(F)(F)F)cc1` [Compound 91, N-(4-(5-chlorothiophen-2-yl)piperidin-4-yl)-4-(trifluoromethoxy)benzenesulfonamide] showed a GI50 (Homo sapiens, LNCaP, 48 h) of 9.6 µM.
Work on `O=S(=O)(NC1CC2(CCCC2)Oc2ccccc21)c1ccc(OC(F)(F)F)cc1` (stereo not drawn) [Compound 18, N-(spiro[chromane-2,1′-cyclopentan]-4-yl)-4-(trifluoromethoxy)benzene-sulfonamide] yielded a GI50 (Homo sapiens, LNCaP, 48 h) of 37.4 µM.
With `O=S(=O)(NC1(c2ccccc2)CNC1)c1ccc(OC(F)(F)F)cc1` [Compound 46, N-(3-phenylazetidin-3-yl)-4-(trifluoromethoxy)benzenesulfonamide] the GI50 (Homo sapiens, LNCaP, 48 h) was ≥ 80 µM.
With `CC(C)Oc1ccc(S(=O)(=O)NC2(c3ccc(F)cc3)CCNCC2)cc1` [Compound 75, N-(4-(4-fluorophenyl)piperidin-4-yl)-4-isopropoxybenzenesulfonamide] the GI50 (Homo sapiens, LNCaP, 48 h) was 30.7 µM.
For `CC(C)(C)N1CCC(NS(=O)(=O)c2ccc(OC(F)(F)F)cc2)C1c1ccc(Cl)c(F)c1` (single isomer, unassigned; enantiomer 1) [Compound 37, trans N-(1-(tert-butyl)-2-(4-chloro-3-fluorophenyl)pyrrolidin-3-yl)-4-(trifluoromethoxy)benzene-sulfonamide enantiomer 1], the GI50 (Homo sapiens, LNCaP, 48 h) was 16 µM.
With `CS(=O)(=O)N1CCC(NS(=O)(=O)c2ccc(OC(F)(F)F)cc2)(c2ccc(Cl)cc2)C1` (stereo not drawn) [Compound 72, N-(3-(4-chlorophenyl)-1-(methylsulfonyl)pyrrolidin-3-yl)-4-(trifluoromethoxy)benzenesulfonamide] the GI50 (Homo sapiens, LNCaP, 48 h) was 50.4 µM.
`O=S(=O)(NC1CCCC1c1ccc(Cl)c(Cl)c1)c1ccc(OC(F)(F)F)cc1` (single isomer, unassigned) [Compound 44, N-(2-(3,4-dichlorophenyl)cyclopentyl)-4-(trifluoromethoxy)benzenesulfonamide] was tested, and the GI50 was 45.4 µM.
Compound `O=S(=O)(NC1(c2ccc(F)cc2F)CCNCC1)c1ccc(OC(F)(F)F)cc1` [Compound 83, N-(4-(2,4-difluorophenyl)piperidin-4-yl)-4-(trifluoromethoxy)benzenesulfonamide] has a GI50 (Homo sapiens, LNCaP, 48 h) of 32 µM.
`O=S(=O)(NC1(c2ccc(Cl)c(F)c2)CCNCC1)c1ccc(OC(F)(F)F)cc1` [Compound 56, N-(4-(4-chloro-3-fluorophenyl)piperidin-4-yl)-4-(trifluoromethoxy)benzenesulfonamide] showed a GI50 (Homo sapiens, LNCaP, 48 h) of 11 µM.
Work on `O=S(=O)(NC1(c2cccc(Cl)c2)CCCC1)c1ccc(OC(F)(F)F)cc1` [Compound 14, N-(1-(3-chlorophenyl)cyclopentyl)-4-(trifluoromethoxy)benzene-sulfonamide] yielded a GI50 (Homo sapiens, LNCaP, 48 h) of 42.8 µM.
